In patent US6989263B1, “Method for identifying and using compounds that inactivate HIV-1 and other retroviruses by attacking highly conserved zinc fingers in the viral nucleocapsid protein” (The United States of America as represented by the …, priority 1994, dated 2006):
Entries after “also recorded” stand apart in the source; their conditions may differ. Where two headings read alike, the source gives them in different places.

How the values were obtained:
p7NC = molecular target: T1, p7NC (Human immunodeficiency virus type 1 group M subtype B, UniProt P05888); experiment: HPLC analysis of reaction products of purified p7NC with reagent; format: biochemical, HIV-1; set-up: key to Protein (HPLC): reaction products / Protein (HPLC): reaction rate: formation of non-native, intra-protein disulfide links (designated “Disulfides”); some of the reagents form adducts with the cysteine residues as well (designated “Adducts”); slow: “Slow” reactions are those in which greater than 10% of the p7NC protein remained in its native form after the 10 minute incubation with reagent; very slow: “Very slow” reactions are those in which greater than 50% of the p7NC protein remained in its native form after the 10 minute incubation with reagent; fast: “Fast” reactions result in complete transformation of the p7NC protein to non-native conformations during the 10 minute incubation period; conditions: for Protein (HPLC): reaction products / Protein (HPLC): reaction rate: 63 μM p7NC, 6 reagent : 1 protein, 10 minutes
T1 construct: The NC protein of HIV-1 (MN) p7NC was expressed in E. coli; made in house; host or cells: E. coli (vector pMAL-c)
Text: Highly purified retroviral NC proteins can be produced by expression from vectors generated through recombinant DNA technology. These proteins when reconstituted with zinc (see, Summers, et al., Protein Science 1:563–567 (1992) for methods), provide the source of the NC proteins containing the zinc fingers that are the targets for attack by the compounds of this invention. When the zinc fingers in NC proteins react with identified compounds, the reaction produces a covalent change in the NC protein, and the modified protein can be separated from the unreacted protein by, for example, reversed phase HPLC.
Samples of p7NC and apo-p7 were reacted with varying amounts of cupric chloride and resulting products separated by HPLC. The reactions were carried out using 44.3 μM protein (p7NC or apo-p7) in 0.1 M Tris-HCl, pH 7.4, for 6 minutes at room temperature with varying concentrations of CuCl2 to achieve the indicated ratios of reactants, in a final volume of 0.7 ml. Chromatography was carried out on the resulting products at pH 2 (0.05% trifluoroacetic acid) on μBondapak™ C-18 (3.9×300 mm) at 1.0 ml/minute using an acetonitrile gradient (0–17%, 20 ml; 17–20%, 60 ml; 20–60%, 10 ml). Elution positions of unreacted protein (p7NC or apo-p7) are indicated as apo-p7.
A two-fold excess of NOBA was reacted with p7NC, and the products were separated by HPLC (FIG. 10) as described above for Cu^+2 and p7NC. Elution positions for the reactants (NOBA and unreacted p7NC) and products, reacted p7NC, NOBA, HABA and AzoxyBA are indicated and an elution profile is included in FIG. 10. NOBA and AzoxyBA were supplied by Octamer, Inc. (Mill Valley, Calif.) and used as HPLC standards.
The disulfide reagent of choice (each available from the Aldrich Chemical Company (Milwaukee, Wis.)) was incubated for 10 minutes with purified p7NC protein (63 μM) at a ratio of 6 molecules of reagent to 1 molecule of NC protein (there are 6 cysteine thiols per NC protein). The formation of non-native protein conformations was monitored by HPLC as described above. […] Generally, the inactivation proceeds by formation of non-native, intra-protein disulfide links (designated “Disulfides”), but some of the reagents form adducts with the cysteine residues as well (designated “Adducts”). “Slow” reactions are those in which greater than 10% of the p7NC protein remained in its native form after the 10 minute incubation with reagent. “Very slow” reactions are those in which greater than 50% of the p7NC protein remained in its native form after the 10 minute incubation with reagent. “Fast” reactions result in complete transformation of the p7NC protein to non-native conformations during the 10 minute incubation period.

[1] = molecular target: T2, HIV NC protein in intact virus (Human immunodeficiency virus type 1 group M subtype B, UniProt P05888); experiment: Cross-linking of NC protein in intact HIV (non-reducing gel-mobility shift, western blot); format: biochemical, HIV-1; conditions: for X-link T-½ (min), HIV NC protein: HIV-1 @ 50 μM; for X-link T-½ (min), HIV NC protein (top number): intact HIV generally 12.5 μM, reagent generally 25 μM
T2 construct: endogenous in cells; host or cells: intact HIV virions
Text: Purified concentrated retrovirus and antisera against the purified NC protein of the virus can be used to test the ability of a specific compound to penetrate the virus and react with the NC protein by forming disulfide complexes in the core of the virus. The compound is mixed with the whole retrovirus under reaction conditions appropriate for the compound. The virus is then removed from the reagent by centrifugation and disrupted in, e.g, standard SDS-PAGE sample buffer with (reduced) and without (non-reduced) 2-mercaptoethanol. The viral proteins are then separated by standard SDS-PAGE and the sample examined for the presence or absence of the monomeric NC protein in the non-reduced sample. Depending upon the virus used in the experiment and the conditions of electrophoresis, the NC protein can be visualized by protein staining methods, or by immuno-blot (e.g., western) methods. Compounds which react with the NC protein by attacking the zinc finger complexes and forming disulfide cross-linked products (i.e., which generate multimers in the mobility shift assay) inactivate the virus. Thus, compounds of interest (i.e., those which cause cross-linking) reduced the amount of monomeric NC protein detected.
In order to determine whether HIV-1MN was inactivated by NOBA, the virus was incubated with varying concentrations of NOBA (3.0, 0.3, 0.03 and 0 mM) as in Table 1. The reaction products were pelleted by centrifugation, and separated by SDS-PAGE under reducing (2% 2-mercaptoethanol, panel A), or non-reducing conditions (panel B). p7NC was visualized by immunoblot analysis using monospecific rabbit antisera to the purified NC proteins as per L. E. Henderson et al., J. Virol. 66:1856 (1992).
Disulfide reagents were further tested for their ability to disrupt NC structure in the virus, based on their ability to cause inter-NC cysteine disulfide bonds (i.e., cross-linking) in the intact virus. The formation of inter-NC cysteine disulfides creates NC multimers, which migrate through a non-reducing gel at a different rate than NC monomers, as described above. Intact HIV virus (generally 12.5 μM) was exposed to the specified reagent (generally 25 μM) for varying lengths of time and electrophoresed through a non-reducing SDS-polyacrylamide gel. HIV NC monomers and multimers were visualized by western blot analysis as described above in Example 3. The approximate time required to cross-link one-half of the NC proteins in the virus at the specified reaction conditions was then determined. […] The top number in the cells of the X-link column in Table 2 refers to the approximate time in minutes required for one-half of the HIV NC proteins to become cross-linked.

[2] = cited from earlier work
[3] = molecular target: T3, p11 Nucleocapsid Protein (p11NC) (Equine infectious anemia virus, UniProt P69732); experiment: Cross-linking of p11NC in intact EIAV particles (gel-mobility shift); format: biochemical; conditions: intact EIAV (50 μM), 4× the HIV assay concentrations
T3 construct: a variety of disulfide reagents cross-link the p11NC protein in intact viral particles; endogenous in cells; host or cells: intact EIAV particles
T3 sequence (P69732 360-435): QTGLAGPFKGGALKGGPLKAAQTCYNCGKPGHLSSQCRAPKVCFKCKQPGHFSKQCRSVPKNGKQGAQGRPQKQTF
Text: Essentially the same strategy was employed to analyze the ability of the various disulfide reagents to cross-link the p11 Nucleocapsid Protein (p11NC) in intact Equine Infectious Anemia Virus (EIAV) particles. The advantages of working with EIAV include the fact that it is not a human pathogen, and that the p11NC protein can be visualized by simple coomassie-blue staining after performing the gel-mobility shift assay (rather than by western blotting as for HIV) described above. The reaction conditions were essentially the same for the EIAV assays as for the HIV assays described above, except that the concentration of virus and disulfide reagent was 4× the concentrations used in the HIV assay above. The second number in each cell in the X-link column in Table 2 represents the time required to cross-link one-half of the p11NC protein in the intact viral particles. […] The bottom number in each cell of the X-link column, unless otherwise indicated, represents the concentration of EIAV used in the assay. Blank cells throughout Table 2 indicate that the compound has yet to be tested for the specified property.

HIV-1 = conditions: read-out: TCID (Virus): concentration of reagent required to inactivate half of a standardized number of HIV-1 virus particles; tissue culture infectivity assay
Method: Concomitantly, the drug treated virions are tested for activity. The virions are suspended in media (rather than solubilized) and added to target cells. The cultures are then examined to determine whether the virions are still active.

HIV-1 (MN) p7NC = molecular target: T4, HIV-1 (MN) p7NC (Human immunodeficiency virus type 1 group M subtype B, UniProt P05888); experiment: Intrinsic Trp-37 fluorescence quenching of p7NC; format: biochemical; conditions: for change in intrinsic fluorescence of p7NC on incubation: Trp-37 fluorescence, zinc-reconstituted p7NC
T4 construct: The NC protein of HIV-1 (MN) p7NC was expressed in E. coli; made in house; host or cells: E. coli (vector pMAL-c)
Text: The NC protein of HIV-1 (MN) p7NC was expressed in E. coli. The coding sequence for HIV-1(MN) p7NC was cloned and expressed using an inducible E. coli promoter in the vector pMAL-c (New England Biolabs Inc., Beverly, Mass.). The protein was expressed as a maltose-binding fusion protein and released by proteolysis with Factor Xa. HIV-1(MN) p7NC was purified by HPLC and characterized, including complete amino acid sequence analysis. p7NC was purified by high-pressure liquid chromatography (HPLC) and reconstituted with two equivalents of zinc to generate native protein as described (M. F. Summers et al., Protein Sci. 1, 563 (1992)).
Coordination of Zn^+2 enhances the intrinsic fluorescence of the single tryptophan (Trp-37) in the second zinc finger. […] The initial phase of the reaction with Cu^+2 (T1/2<20 seconds) gave 70% quenching of the original fluorescence, followed by a much slower phase (T1/2 ca. 6 minutes), resulting in a final limiting quenching of 85%.
The first quenching phase was a second order reaction, whereas the second phase was independent of protein concentration or oxidizing species.

Row | SMILES | Protein (HPLC): reaction products (p7NC) | Protein (HPLC): reaction rate (p7NC) | cross-linking of the HIV-1 NC protein in intact virus (gel-mobility shift), in words [1] | X-link T-½ (min), EIAV p11NC (second number) [3] | X-link T-½ (min), HIV NC protein (top number) [1] | other results
1 | O=C(O)c1ccc(SSc2ccc(C(=O)O)cn2)nc1 [6,6-Dithiodinicotinic Acid] | Disulfides; also recorded: Adducts | (slow) (“Slow” reactions are those in which greater than 10% of the p7NC protein remained in its native form after the 10 minute incubation with reagent) |  |  |  | X-link T-½ (min), HIV NC protein [1]: ~60 min
2 | c1ccc2sc(SSc3nc4ccccc4s3)nc2c1 [2,2 Dithiobis(benzothiazole)] | Disulfides |  | caused a cross-linking of the HIV-1 NC protein |  |  | Toxicity (LD-50, mouse) ([2]; route not given): 7000 mg/kg; X-link T-½ (min), HIV NC protein [1]: ~60 min
3 | CN(C)C(=S)SSC(=S)N(C)C [Tetramethylthiuram Disulfide] | Disulfides | (slow) (“Slow” reactions are those in which greater than 10% of the p7NC protein remained in its native form after the 10 minute incubation with reagent) | caused a cross-linking of the HIV-1 NC protein | ~15 min | ~30 min | Toxicity (LD-50, mouse) ([2]; IP): 70 mg/kg; Toxicity (LD-50, mouse) ([2]; oral): 1350 mg/kg
4 | c1ccc(SSc2ccccn2)nc1 [Aldrithiol-2] | Disulfides; also recorded: Adducts | (slow) (“Slow” reactions are those in which greater than 10% of the p7NC protein remained in its native form after the 10 minute incubation with reagent) | caused a cross-linking of the HIV-1 NC protein | ~15 min | ~15 min | IC50 (HIV-1): 9 µM
5 | CC(C)n1cc(C(C)(C)C)nc1SSc1nc(C(C)(C)C)cn1C(C)C [2,2-Dithiobis(4-Tert-Butyl-1-Isopropyl)-Imidazole] | Disulfides |  |  |  |  | X-link T-½ (min), HIV NC protein [1]: >>60 min
6 | CCCCN(CCCC)C(=S)SSC(=S)N(CCCC)CCCC [Tetrabutylthiuram Disulfide] | Disulfides; also recorded: Adducts | (slow) (“Slow” reactions are those in which greater than 10% of the p7NC protein remained in its native form after the 10 minute incubation with reagent) | caused a cross-linking of the HIV-1 NC protein | >60 min | ~30 min | Toxicity (LD-50, mouse) ([2]; IP): 2350 mg/kg
7 | CC(C)N(C(=S)SSC(=S)N(C(C)C)C(C)C)C(C)C [Tetraisopropylthiuram Disulfide] | Disulfides |  | caused a cross-linking of the HIV-1 NC protein | ~15 min | >15 min | 
8 | [O-][n+]1ccccc1SSc1cccc[n+]1[O-] [2,2-Dithiobis(Pyridine N-Oxide)] | Disulfides |  | caused a cross-linking of the HIV-1 NC protein | <15 min | <<15 min | 
9 | Cl.Cl.N=C(N)SSC(=N)N [Formamidine Disulfide.2HCl] | Disulfides |  |  |  |  | IC50 (HIV-1): 43.5 µM
10 | [Cl][Cu][Cl] [Cu^+2, cupric chloride] |  |  |  |  |  | total protein recovered in peak B (p7NC; 2, 4 or 8 Cu^+2 per p7NC, 44.3 μM protein, 6 minutes, pH 7.4): approximately one half; change in intrinsic fluorescence of p7NC on incubation (HIV-1 (MN) p7NC): rapid biphasic decrease in fluorescence; final limiting quenching (HIV-1 (MN) p7NC; Zn^+2-coordinated p7NC): 85%; quenching of the original fluorescence, initial phase (HIV-1 (MN) p7NC; Zn^+2-coordinated p7NC): 70%
11 | CC(=O)[O-].CC(=O)[O-].CC(=O)[O-].[Fe+3] [ferric acetate] |  |  |  |  |  | change in intrinsic fluorescence of p7NC on incubation (HIV-1 (MN) p7NC): rapid biphasic decrease in fluorescence
12 | N#Cc1ccccc1SSc1ccccc1C#N [2,2 Dithiobis(benzonitrile)] | Disulfides; also recorded: Adducts |  |  | ~15 min | <<15 min | 
